The results in this text go back to paper PMC8333062, “Chemical tools for epichaperome-mediated interactome dysfunctions of the central nervous system” (Nature Communications, 2021).

Several values for one entry are separate records, joined by “and”; a condition that tells them apart may be missing. Identical values can stand only once.

Tested on in the first data set: not listed separately
The data set can be described thus: Pharmacokinetic studies in mice (LC-MS/MS). The data set is classed as in vivo, B6D2F1 mice. On the set-up: Plasma level: unit: uM. The note with it: Brain; time 5 min; individual animals. As to the method:
Blood and brain tissue were collected following euthanasia at the scheduled time points of 5, 30 min, 1, 4, and 8 h following iv dosing and of 30 min, 1, 4, and 8 h following po dosing. Brain samples were immediately flash frozen in liquid nitrogen following collection and stored at −80 °C until analysis. Blood samples were collected into an EDTA tube by heart puncture and centrifuged at 17,000×g for 5 min at 4 °C to separate the plasma and immediately frozen on dry ice and stored at −80 °C until analysis. […] This was homogenized, extracted with methylene chloride, and evaporated on a GeneVac. […] Drug concentration (μM) in the brain was then modified to account for an average water space of 0.8 mL g^−1.
Regarding `CC(C)(C)CNCCn1c(Sc2cc(O)c(O)cc2I)nc2c(N)ncnc21` [Compound M2], the Brain level was 0 (3×) and 0.75 and 0.71.

The data set is the same for the next values; noted with them: Brain; time 0.5 h; individual animals.
On to `CC(C)(C)CNCCn1c(Sc2cc(O)c(O)cc2I)nc2c(N)ncnc21` [Compound M2], for which the Brain level is 0.02 and 0.49 and 0 (2×).

The same data set, now with this note: Brain; time 1 h; individual animals.
Consider `CC(C)(C)CNCCn1c(Sc2cc(O)c(O)cc2I)nc2c(N)ncnc21` [Compound M2], for which the Brain level was 0 (3×) and 0.04.

Still in this data set, the particulars now being: Brain; time 4 h; individual animals.
The compound `CC(C)(C)CNCCn1c(Sc2cc(O)c(O)cc2I)nc2c(N)ncnc21` [Compound M2] returned a Brain level of 0.

Still in this data set, the particulars now being: Brain; time 8 h; individual animals.
With `CC(C)(C)CNCCn1c(Sc2cc(O)c(O)cc2I)nc2c(N)ncnc21` [Compound M2], the Brain level turned out to be 0.

Staying with this data set, now noted: Plasma; time 5 min; individual animals.
For the compound `CC(C)(C)CNCCn1c(Sc2cc(O)c(O)cc2I)nc2c(N)ncnc21` [Compound M2], the Plasma level was 0.04 and 0 (4×).

The data set is the same for the next values; noted with them: Plasma; time 0.5 h; individual animals.
On to `CC(C)(C)CNCCn1c(Sc2cc(O)c(O)cc2I)nc2c(N)ncnc21` [Compound M2], for which the Plasma level was 0.02 and 0 (3×).

The same data set, now with this note: Plasma; time 1 h; individual animals.
With `CC(C)(C)CNCCn1c(Sc2cc(O)c(O)cc2I)nc2c(N)ncnc21` [Compound M2], the Plasma level is 0 (3×) and 0.03.

The same data set, now with this note: Plasma; time 4 h; individual animals.
As for `CC(C)(C)CNCCn1c(Sc2cc(O)c(O)cc2I)nc2c(N)ncnc21` [Compound M2], the Plasma level is 0.

The same data set, now with this note: Plasma; time 8 h; individual animals.
`CC(C)(C)CNCCn1c(Sc2cc(O)c(O)cc2I)nc2c(N)ncnc21` [Compound M2]: the Plasma level was 0.

Tested on in a further data set: not listed separately
Briefly: in vitro. The following applies: PAMPA, pH 7.4. For orientation: The PAMPA barrier holds no transporters, so it reflects passive diffusion.
`CC(C)NCCCn1c(Sc2cc3c(cc2-c2ccc(Br)cc2)OCO3)nc2c(N)ncnc21` [Compound 10] came in with a Papp at 16 h, 50 μM of 11.5 ± 0.4 ×10⁻⁶ cm/s.
Still for that read-out and setting: with `C=CCc1cc2c(cc1Cc1nc3c(N)nc(F)nc3n1CCCNC(C)C)OCO2` [Compound 23] the figure was 4.6 ± 0.6 ×10⁻⁶ cm/s; with `Nc1ncnc2c1nc(Sc1cc3c(cc1I)OCC3)n2CCCBr` [Compound 40], 7.7 ± 0.8 ×10⁻⁶ cm/s.
Compound `CCc1cc2c(cc1Cc1nc3c(N)nc(F)nc3n1CCCNC(C)C)OCO2` [Compound 21] had an apparent permeability coefficient (Papp) at 16 h, 50 μM of 5.9 ± 0.6 ×10⁻⁶ cm/s.
`CC(C)NCCCn1c(Sc2cc3c(cc2I)OCCO3)nc2c(N)ncnc21` [Compound 28] displayed an apparent permeability (Papp) at 16 h, 50 μM of 6.6 ± 0.6 ×10⁻⁶ cm/s.
In turn, `C=Cc1cc2c(cc1Cc1nc3c(N)nc(F)nc3n1CCCNC(C)C)OCO2` [Compound 22] displayed a Papp at 16 h, 50 μM of 5.6 ± 0.2 ×10⁻⁶ cm/s.
For the compound `Nc1nc(F)nc2c1nc(Cc1cc3c(cc1I)OCO3)n2CCCN1CCCCC1` [Compound 67], the apparent permeability coefficient (Papp) at 16 h, 50 μM came out at 6.9 ± 0.2 ×10⁻⁶ cm/s.

The target in the next data set is HSP90 pools in JNPL3 (AD transgenic) mouse brain lysate. The data set can be described thus: Fluorescence polarization (FP) competitive binding, cy3B-GM. The note with it: displacement of cy3B-GM, 24 h, 4 °C; mean±SD, n=3; read-out: FP relative affinity. In general terms: Polarisation of emitted light reports the rotation of a fluorescent probe.
Turning to `CC(C)NCCCn1c(Sc2cc3c(cc2-c2ccc(Br)cc2)OCO3)nc2c(N)ncnc21` [Compound 10], the EC50 was 732 ± 13 nM.
On the same count and under the same terms, the result for `C=CCc1cc2c(cc1Cc1nc3c(N)nc(F)nc3n1CCCNC(C)C)OCO2` [Compound 23] reads > 5000 nM; that for `Nc1ncnc2c1nc(Sc1cc3c(cc1I)OCC3)n2CCCBr` [Compound 40], 8 ± 0.4 nM; that for `CC(C)NCCCn1c(Sc2cc3c(cc2Br)OCO3)nc2c(N)ncnc21` [Compound 3], 122 ± 7 nM.
Regarding `CCc1cc2c(cc1Cc1nc3c(N)nc(F)nc3n1CCCNC(C)C)OCO2` [Compound 21], the EC50 is 813 ± 56 nM.
Still for that read-out and setting: the result for `CC(C)NCCCn1c(Sc2cc3c(cc2C#N)OCO3)nc2c(N)ncnc21` [Compound 5] reads 285 ± 13 nM; that for `CC(C)NCCCn1c(Sc2cc3c(cc2I)CCC3)nc2c(N)ncnc21` [Compound 53], 4.5 ± 0.5 nM; that for `CC(C)NCCCn1c(Cc2cc(I)c3c(c2)OCO3)nc2c(N)nc(F)nc21` [Compound 17], 85 ± 10 nM.
On the same count and under the same terms, with `CC(=O)c1cc2c(cc1Sc1nc3c(N)ncnc3n1CCCNC(C)C)OCO2` [Compound 6] the figure was 103 ± 7 nM; with `CC(C)(C)NCCCn1c(Cc2cc3c(cc2I)OCO3)nc2c(N)nc(F)nc21` [Compound 59], 12.7 ± 1.6 nM; with `CC(C)NCCCn1c(Sc2cc3c(cc2I)OCCO3)nc2c(N)ncnc21` [Compound 28], 34.5 ± 1.7 nM.
With `C[N+](C)(C)CCCn1c(Cc2cc3c(cc2I)OCO3)nc2c(N)nc(F)nc21` [Compound 72], the EC50 was 155 ± 5 nM.
Still for that read-out and setting: the result for `CC(C)NCCCn1c(Sc2cc3c(cc2I)OCCCO3)nc2c(N)ncnc21` [Compound 35] reads 232 ± 10 nM.
On the same count and under the same terms, the result for `C#CCN(C)CCCn1c(Cc2cc3c(cc2I)OCO3)nc2c(N)nc(F)nc21` [Compound 64] reads 30 ± 6 nM; that for `CC(C)NCCCn1c(Cc2cc3c(cc2C#N)OCO3)nc2c(N)nc(F)nc21` [Compound 20], 219 ± 19 nM.
On the same count and under the same terms, with `C=Cc1cc2c(cc1Cc1nc3c(N)nc(F)nc3n1CCCNC(C)C)OCO2` [Compound 22] the figure was 146 ± 9 nM; with `CC(C)NCCCn1c(Cc2cc(Br)c3c(c2)OCO3)nc2c(N)nc(F)nc21` [Compound 18], 191 ± 6 nM; with `Nc1nc(F)nc2c1nc(Cc1cc3c(cc1I)OCO3)n2CCCN1CCCCC1` [Compound 67], 112 ± 6 nM.

Tested on in a further data set: not given
Assay: not given
The following applies: 10 µM PU-HZ151, 60 min, replicate 1.
For the compound `CC(C)(C)CNCCn1c(Sc2cc(O)c(O)cc2I)nc2c(N)ncnc21` [Compound M2], the “% Peak area of metabolite” value stood at 13.0%.
In the case of `NCCn1c(Sc2cc(O)c(O)cc2I)nc2c(N)ncnc21` [Compound M5], the “% Peak area of metabolite” value is on record as 2.5%.

Still in this data set, the particulars now being: 10 µM PU-HZ151, 60 min, replicate 2.
As to `CC(C)(C)CNCCn1c(Sc2cc(O)c(O)cc2I)nc2c(N)ncnc21` [Compound M2], the “% Peak area of metabolite” value is 9.0%.
Same read-out and setting: with `NCCn1c(Sc2cc(O)c(O)cc2I)nc2c(N)ncnc21` [Compound M5] the figure was 2.9%.

Tested on in the next data set: not listed separately
Briefly: PAMPA-BBB permeability. The following applies: Supplementary Table 6.
As to `CC(C)NCCCn1c(Sc2cc3c(cc2-c2ccc(Br)cc2)OCO3)nc2c(N)ncnc21` [Compound 10], the PAMPA_BBB amounted to 11.5±0.4.
Still for that read-out and setting: with `C=CCc1cc2c(cc1Cc1nc3c(N)nc(F)nc3n1CCCNC(C)C)OCO2` [Compound 23] the figure was 4.6±0.6; with `Nc1ncnc2c1nc(Sc1cc3c(cc1I)OCC3)n2CCCBr` [Compound 40], 7.7±0.8.
For `CCc1cc2c(cc1Cc1nc3c(N)nc(F)nc3n1CCCNC(C)C)OCO2` [Compound 21], the PAMPA_BBB was determined as 5.9±0.6.
On the same count and under the same terms, with `CC(C)NCCCn1c(Sc2cc3c(cc2I)CCC3)nc2c(N)ncnc21` [Compound 53] the figure was 15.1±0.7; with `CC(C)(C)NCCCn1c(Cc2cc3c(cc2I)OCO3)nc2c(N)nc(F)nc21` [Compound 59], 13.3±1.4.
Same read-out and setting: the result for `CC(C)NCCCn1c(Sc2cc3c(cc2I)OCCO3)nc2c(N)ncnc21` [Compound 28] reads 6.6±0.6; that for `C[N+](C)(C)CCCn1c(Cc2cc3c(cc2I)OCO3)nc2c(N)nc(F)nc21` [Compound 72], 1.3±0.1; that for `C#CCN(C)CCCn1c(Cc2cc3c(cc2I)OCO3)nc2c(N)nc(F)nc21` [Compound 64], 11.1±0.1.
In turn, `C=Cc1cc2c(cc1Cc1nc3c(N)nc(F)nc3n1CCCNC(C)C)OCO2` [Compound 22] yielded a PAMPA_BBB of 5.6±0.2.
On the same count and under the same terms, with `Nc1nc(F)nc2c1nc(Cc1cc3c(cc1I)OCO3)n2CCCN1CCCCC1` [Compound 67] the figure was 6.9±0.2.

Still in this data set, the particulars now being: pig, PAMPA, pH 7.4.
`CC(C)NCCCn1c(Sc2cc3c(cc2I)CCC3)nc2c(N)ncnc21` [Compound 53] came in with an apparent permeability (Papp) at 16 h, 50 μM of 15.1 ×10⁻⁶ cm/s.
Still for that read-out and setting: the result for `CC(C)(C)NCCCn1c(Cc2cc3c(cc2I)OCO3)nc2c(N)nc(F)nc21` [Compound 59] reads 13.3 ×10⁻⁶ cm/s; that for `C#CCN(C)CCCn1c(Cc2cc3c(cc2I)OCO3)nc2c(N)nc(F)nc21` [Compound 64], 11.1 ×10⁻⁶ cm/s.

In general, Papp refers to the rate of passage across a membrane or cell layer, normalised by area and donor concentration.
